From patent US7378435B2, “Aryl-isoxazole-4-carbonyl-indole-carboxylic acid amide derivatives” (Hoffmann-La Roche Inc., priority 2005, dated 2008)
Read-outs that look alike come from different tables or passages of the source.

Target: T1, GABA A receptor α5β3γ2 (Homo sapiens, UniProt P18507+P31644)
T1 construct: expressed in transfected cells; host or cells: HEK293 (transiently transfected for the human receptors)
Experiment: [3H]flumazenil competition binding, human GABA A α5β3γ2 receptors expressed in HEK293 cells
Procedure: The affinity of compounds at GABA A receptor subtypes was measured by competition for [3H]flumazenil (85 Ci/mmol; Roche) binding to HEK293 cells expressing rat (stably transfected) or human (transiently transfected) receptors of composition α1β3γ2, α2β3γ2, α3β3γ2 and α5β3γ2.
Cell pellets were suspended in Krebs-tris buffer (4.8 mM KCl, 1.2 mM CaCl2, 1.2 mM MgCl2, 120 mM NaCl, 15 mM Tris; pH 7.5; binding assay buffer), homogenized by polytron for ca. 20 sec on ice and centrifuged for 60 min at 4° C. (50000 g; Sorvall, rotor: SM24=20000 rpm). The cell pellets were resuspended in Krebs-tris buffer and homogenized by polytron for ca. 15 sec on ice. Protein was measured (Bradford method, Bio-Rad) and aliquots of 1 mL were prepared and stored at −80° C.
Radioligand binding assays were carried out in a volume of […] (96-well plates) which contained […] of cell membranes, [3H]flumazenil at a concentration of 1 nM for α1, α2, α3 subunits and 0.5 nM for α5 subunits and the test compound in the range of […]. Nonspecific binding was defined by 10^−5 M diazepam and typically represented less than 5% of the total binding. Assays were incubated to equilibrium for 1 hour at 4° C. and harvested onto GF/C uni-filters (Packard) by filtration using a Packard harvester and washing with ice-cold wash buffer (50 mM Tris; pH 7.5). After drying, filter-retained radioactivity was detected by liquid scintillation counting. Ki values were calculated using Excel-Fit (Microsoft) and are the means of two determinations.

[1] = Table 1, human α5, [3H]flumazenil, mean of two determinations, read-out: Ki h
[2] = human α5β3γ2, 0.5 nM [3H]flumazenil, mean of two determinations, read-out: Ki[μM] hα5

Ki [1] [µM]	Ki [2] [µM]	Structure (SMILES)	Ki [µM]
		Cc1onc(-c2cccc(F)c2)c1C(=O)c1cn(C)c2cc(C(=O)NCc3ccco3)ccc12 [Example 42, 3-[3-(3-Fluoro-phenyl)-5-methyl-isoxazole-4-carbonyl]-1-methyl-1H-indole-6-carboxylic acid(furan-2-ylmethyl)-amide]	0.0769
0.0386		CC(C)c1onc(-c2cccc(F)c2)c1C(=O)c1c[nH]c2cc(C(=O)NC3CCOCC3)ccc12 [Example 39, 3-[3-(3-Fluoro-phenyl)-5-isopropyl-isoxazole-4-carbonyl]-1H-indole-6-carboxylicacid (tetrahydro-pyran-4-yl)-amide]	
0.0053	0.0053	Cc1onc(-c2ccccc2)c1C(=O)c1c[nH]c2cc(C(=O)NCc3ccco3)ccc12 [Example 7, 3-(5-Methyl-3-phenyl-isoxazole-4-carbonyl)-1H-indole-6-carboxylicacid (furan-2-ylmethyl)-amide]	
		Cc1onc(-c2cccc(F)c2)c1C(=O)c1cn(C)c2cc(C(=O)NCC3CC3)ccc12 [Example 43, 3-[3-(3-Fluoro-phenyl)-5-methyl-isoxazole-4-carbonyl]-1-methyl-1H-indole-6-carboxylic acidcyclopropylmethyl-amide]	0.0667
0.0235		Cc1onc(-c2cccc(F)c2)c1C(=O)c1c[nH]c2cc(C(=O)NCCc3cnc[nH]3)ccc12 [Example 26, 3-[3-(3-Fluoro-phenyl)-5-methyl-isoxazole-4-carbonyl]-1H-indole-6-carboxylicacid [2-(1H-imidazol-4-yl)-ethyl]-amide]	
		Cc1onc(-c2cccc(F)c2)c1C(=O)c1cn(-c2ccccc2)c2cc(C(=O)NC3CCCC3)ccc12 [Example 51, 3-[3-(3-Fluoro-phenyl)-5-methyl-isoxazole-4-carbonyl]-1-phenyl-1H-indole-6-carboxylic acidcyclopentylamide]	0.0402
	0.00645	Cc1onc(-c2ccc(F)cc2)c1C(=O)c1c[nH]c2cc(C(=O)NCC3CC3)ccc12 [Example 1, 3-[3-(4-Fluoro-phenyl)-5-methyl-isoxazole-4-carbonyl]-1H-indole-6-carboxylic acid cyclopropylmethyl-amide]	
0.0447		CC(C)c1onc(-c2cccc(F)c2)c1C(=O)c1c[nH]c2cc(C(=O)NC3CCCC3)ccc12 [Example 40, 3-[3-(3-Fluoro-phenyl)-5-isopropyl-isoxazole-4-carbonyl]-1H-indole-6-carboxylicacidcyclopentylamide]	
		C#CCNC(=O)c1ccc2c(C(=O)c3c(-c4cccc(F)c4)noc3C)cn(C)c2c1 [Example 44, 3-[3-(3-Fluoro-phenyl)-5-methyl-isoxazole-4-carbonyl]-1-methyl-1H-indole-6-carboxylic acidprop-2-ynylamide]	0.0383
0.0026	0.0026	Cc1onc(-c2ccc(F)cc2)c1C(=O)c1c[nH]c2cc(C(=O)NCCc3cnc[nH]3)ccc12 [Example 12, 3-[3-(4-Fluoro-phenyl)-5-methyl-isoxazole-4-carbonyl]-1H-indole-6-carboxylicacid [2-(1H-imidazol-4-yl)-ethyl]-amide]	
0.0953		Cc1onc(-c2cccc(F)c2)c1C(=O)c1c[nH]c2cc(C(=O)NC3CCCC3)ccc12 [Example 33, 3-[3-(3-Fluoro-phenyl)-5-methyl-isoxazole-4-carbonyl]-1H-indole-6-carboxylicacidcyclopentylamide]	
0.0043	0.0043	Cc1onc(-c2ccc(F)cc2)c1C(=O)c1c[nH]c2cc(C(=O)NCCCN3CCOCC3)ccc12 [Example 17, 3-[3-(4-Fluoro-phenyl)-5-methyl-isoxazole-4-carbonyl]-1H-indole-6-carboxylicacid (3-morpholin-4-yl-propyl)-amide]	
0.0253		Cc1onc(-c2cccc(F)c2)c1C(=O)c1cn(-c2ccccc2)c2cc(C(=O)NCc3ccco3)ccc12 [Example 47, 3-[3-(3-Fluoro-phenyl)-5-methyl-isoxazole-4-carbonyl]-1-phenyl-1H-indole-6-carboxylic acid(furan-2-ylmethyl)-amide]	
0.0227		Cc1onc(-c2cccc(F)c2)c1C(=O)c1c[nH]c2cc(C(=O)NCCN3CCOCC3)ccc12 [Example 28, 3-[3-(3-Fluoro-phenyl)-5-methyl-isoxazole-4-carbonyl]-1H-indole-6-carboxylicacid (2-morpholin-4-yl-ethyl)-amide]	
0.00485	0.00484	Cc1onc(-c2ccc(F)cc2)c1C(=O)c1c[nH]c2cc(C(=O)NCc3ccco3)ccc12 [Example 15, 3-[3-(4-Fluoro-phenyl)-5-methyl-isoxazole-4-carbonyl]-1H-indole-6-carboxylicacid (furan-2-ylmethyl)-amide]	
0.0319		C#CCNC(=O)c1ccc2c(C(=O)c3c(-c4cccc(F)c4)noc3C)c[nH]c2c1 [Example 31, 3-[3-(3-Fluoro-phenyl)-5-methyl-isoxazole-4-carbonyl]-1H-indole-6-carboxylicacid prop-2-ynylamide]	
0.00305	0.00305	Cc1onc(-c2ccc(F)cc2)c1C(=O)c1c[nH]c2cc(C(=O)NC3CC3)ccc12 [Example 23, 3-[3-(4-Fluoro-phenyl)-5-methyl-isoxazole-4-carbonyl]-1H-indole-6-carboxylicacidcyclopropylamide]	
0.00545	0.00545	Cc1onc(-c2ccccc2)c1C(=O)c1c[nH]c2cc(C(=O)NC3CCOCC3)ccc12 [Example 11, 3-(5-Methyl-3-phenyl-isoxazole-4-carbonyl)-1H-indole-6-carboxylicacid (tetrahydro-pyran-4-yl)-amide]	
		Cc1onc(-c2cccc(F)c2)c1C(=O)c1cn(C)c2cc(C(=O)NCCN3CCOCC3)ccc12 [Example 41, 3-[3-(3-Fluoro-phenyl)-5-methyl-isoxazole-4-carbonyl]-1-methyl-1H-indole-6-carboxylic acid(2-morpholin-4-yl-ethyl)-amide]	0.0249
0.0418		Cc1onc(-c2cccc(F)c2)c1C(=O)c1c[nH]c2cc(C(=O)NC3CCOCC3)ccc12 [Example 32, 3-[3-(3-Fluoro-phenyl)-5-methyl-isoxazole-4-carbonyl]-1H-indole-6-carboxylicacid (tetrahydro-pyran-4-yl)-amide]	
0.0394		Cc1onc(-c2cccc(F)c2)c1C(=O)c1c[nH]c2cc(C(=O)NCc3ccccn3)ccc12 [Example 27, 3-[3-(3-Fluoro-phenyl)-5-methyl-isoxazole-4-carbonyl]-1H-indole-6-carboxylicacid (pyridin-2-ylmethyl)-amide]	
